Results published in US11040035B2, “3-oxo-2,6-diphenyl-2,3-dihydropyridazine-4-carboxamides” (BAYER PHARMA AKTIENGESELLSCHAFT, priority 2016, dated 2021).

Key:
AHR [1] = biological target: T1, AHR (Homo sapiens, UniProt P35869); test: In vitro assay 2: agonism in human cell line (transactivation assay); details: Assay 2: AHR-luc Hum Agonism IC50 [M], no kynurenic acid, 20 hours, firefly luciferase
T1 sequence (P35869 11-848): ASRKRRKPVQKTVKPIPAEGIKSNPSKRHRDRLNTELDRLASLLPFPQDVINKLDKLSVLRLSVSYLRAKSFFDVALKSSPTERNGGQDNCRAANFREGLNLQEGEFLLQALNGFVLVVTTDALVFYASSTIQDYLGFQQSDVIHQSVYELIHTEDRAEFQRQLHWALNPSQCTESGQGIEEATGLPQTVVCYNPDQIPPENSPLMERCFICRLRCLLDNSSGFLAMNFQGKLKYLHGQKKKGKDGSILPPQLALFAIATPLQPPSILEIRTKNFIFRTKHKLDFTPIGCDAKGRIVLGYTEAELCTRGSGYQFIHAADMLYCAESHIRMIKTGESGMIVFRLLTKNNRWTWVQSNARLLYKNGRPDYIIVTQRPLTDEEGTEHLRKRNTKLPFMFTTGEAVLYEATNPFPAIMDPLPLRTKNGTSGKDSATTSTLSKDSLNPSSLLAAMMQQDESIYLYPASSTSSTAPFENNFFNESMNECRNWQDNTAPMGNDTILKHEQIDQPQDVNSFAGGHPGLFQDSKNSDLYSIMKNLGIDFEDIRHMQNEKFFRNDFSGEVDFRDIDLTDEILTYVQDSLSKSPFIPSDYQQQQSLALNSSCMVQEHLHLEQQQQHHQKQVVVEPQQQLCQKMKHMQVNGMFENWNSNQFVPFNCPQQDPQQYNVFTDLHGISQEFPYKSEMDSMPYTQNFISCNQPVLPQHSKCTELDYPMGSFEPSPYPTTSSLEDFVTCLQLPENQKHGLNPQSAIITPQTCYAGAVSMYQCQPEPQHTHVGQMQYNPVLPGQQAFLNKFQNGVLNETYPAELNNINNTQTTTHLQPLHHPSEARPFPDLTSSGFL
Procedure: Transactivation Assay in Human Cell Line (In Vitro Assays 1 and 2)
Transactivation assays were carried out in U87 glioblastoma cells (ATCC) endogenously expressing AHR. In addition the cells were stably transfected with an AHR inducible firefly luciferase reporter gene construct that carried AHR-binding sites (DRE) in its promoter and a renilla reporter gene construct with constitutively active promoter.
In Vitro Assay 2: Agonism in Human Cell Line
Cells in medium (tryptophan free RPMI, 1% FCS, 2 mM Glutamine) were grown for 20 hours in absence (negative control) or presence of increasing concentrations of test compounds (typical dilutions: 72 pmol/L, 0.25 nmol/L, 0.89 nmol/L; 3.1 nmol/L, 11 nmol/L, 38 nmol/L, 130 nmol/L, 470 nmol/L, 1.6 μmol/L, 5.7 μmol/L and 20 μmol/L in duplicates). As positive activation control cells were incubated with 300 μM kynurenic acid. Normalization was done by positive and negative controls.
Firefly luciferase activity was determined by the SteadyGlo Luciferase Assay System (Promega, #2520).

AHR [2] = biological target: T1, AHR; test: In vitro assay 1: antagonism in human cell line (transactivation assay, kynurenic acid prestimulated); details: Assay 1: AHR-luc Hum Antagonism IC50 [M], 150 μM kynurenic acid, 20 hours, firefly luciferase

SMILES	IC50 (AHR [1]) [M]	IC50 (AHR [2]) [M]
CC(C)[C@@H](CO)NC(=O)c1cc(-c2ccc(C(F)F)cc2)nn(-c2cccc(F)c2)c1=O [Example 91, 6-[4-(Difluoromethyl)phenyl]-2-(3-fluorophenyl)-N-[(2S)-1-hydroxy-3-methylbutan-2-yl]-3-oxo-2,3-dihydropyridazine-4-carboxamide]	> 2e-05	4.44e-09
CC[C@@H](CO)NC(=O)c1cc(-c2ccc(C(F)F)cc2)nn(-c2cccc(F)c2)c1=O [Example 92, 6-[4-(Difluoromethyl)phenyl]-2-(3-fluorophenyl)-N-[(2S)-1-hydroxybutan-2-yl]-3-oxo-2,3-dihydropyridazine-4-carboxamide]	> 2e-05	1.2e-08
C[C@@H](CO)NC(=O)c1cc(-c2ccc(C(F)F)cc2)nn(-c2cccc(F)c2)c1=O [Example 93, 6-[4-(Difluoromethyl)phenyl]-2-(3-fluorophenyl)-N-[(2S)-1-hydroxypropan-2-yl]-3-oxo-2,3-dihydropyridazine-4-carboxamide]	> 2e-05	3.02e-08
O=C(NCC(O)C(F)(F)F)c1cc(-c2ccc(C(F)F)cc2)nn(-c2cccc(F)c2)c1=O (centres unmarked) [Example 94, 6-[4-(Difluoromethyl)phenyl]-2-(3-fluorophenyl)-3-oxo-N-(3,3,3-trifluoro-2-hydroxypropyl)-2,3-dihydropyridazine-4-carboxamide]	> 2e-05	1.54e-08
COc1ccc(-c2cc(C(=O)NC(CO)C(F)(F)F)c(=O)n(-c3cccc(F)c3)n2)cc1 (centres unmarked) [Example 100, 2-(3-Fluorophenyl)-6-(4-methoxyphenyl)-3-oxo-N-(1,1,1-trifluoro-3-hydroxypropan-2-yl)-2,3-dihydropyridazine-4-carboxamide]	> 2e-05	1.09e-08
CC(C)[C@@H](CO)NC(=O)c1cc(-c2ccc(OC(F)F)cc2)nn(-c2cccc(F)c2)c1=O [Example 110, 6-[4-(Difluoromethoxy)phenyl]-2-(3-fluorophenyl)-N-[(2S)-1-hydroxy-3-methylbutan-2-yl]-3-oxo-2,3-dihydropyridazine-4-carboxamide]	> 2e-05	1.79e-08
COc1ccc(-c2cc(C(=O)N[C@H](CO)C(C)C)c(=O)n(-c3cccc(F)c3)n2)cc1 [Example 113, 2-(3-Fluorophenyl)-N-[(2S)-1-hydroxy-3-methylbutan-2-yl]-6-(4-methoxyphenyl)-3-oxo-2,3-dihydropyridazine-4-carboxamide]	> 2e-05	1.8e-08
O=C(NCC(O)C(F)(F)F)c1cc(-c2ccc(OC(F)F)cc2)nn(-c2cccc(F)c2)c1=O (centres unmarked) [Example 120, 6-[4-(Difluoromethoxy)phenyl]-2-(3-fluorophenyl)-3-oxo-N-(3,3,3-trifluoro-2-hydroxypropyl)-2,3-dihydropyridazine-4-carboxamide]	> 2e-05	4.47e-08
COc1ccc(-c2cc(C(=O)NCC(O)C(F)(F)F)c(=O)n(-c3cccc(F)c3)n2)cc1 (centres unmarked) [Example 126, 2-(3-Fluorophenyl)-6-(4-methoxyphenyl)-3-oxo-N-(3,3,3-trifluoro-2-hydroxypropyl)-2,3-dihydropyridazine-4-carboxamide]	> 2e-05	5.13e-08
C[C@H](O)[C@H](CO)NC(=O)c1cc(-c2ccc(Cl)cc2)nn(-c2cccc(F)c2)c1=O [Example 132, 6-(4-Chlorophenyl)-N-[(2S,3S)-1,3-dihydroxybutan-2-yl]-2-(3-fluorophenyl)-3-oxo-2,3-dihydropyridazine-4-carboxamide]	> 2e-05	1.36e-07
CC[C@@H](CO)NC(=O)c1cc(-c2ccc(OC(F)F)cc2)nn(-c2cccc(F)c2)c1=O [Example 137, 6-[4-(Difluoromethoxy)phenyl]-2-(3-fluorophenyl)-N-[(2S)-1-hydroxybutan-2-yl]-3-oxo-2,3-dihydropyridazine-4-carboxamide]	> 2e-05	4.99e-08
COc1ccc(-c2cc(C(=O)NC(C)C(C)O)c(=O)n(-c3cccc(F)c3)n2)cc1 (centres unmarked) [Example 138, 2-(3-Fluorophenyl)-N-(3-hydroxybutan-2-yl)-6-(4-methoxyphenyl)-3-oxo-2,3-dihydropyridazine-4-carboxamide]	> 2e-05	5.02e-08
COc1ccc(-c2cc(C(=O)N[C@@H]3CCC[C@@H]3O)c(=O)n(-c3cccc(F)c3)n2)cc1 [Example 139, 2-(3-Fluorophenyl)-N-[(1R,2S)-2-hydroxycyclopentyl]-6-(4-methoxyphenyl)-3-oxo-2,3-dihydropyridazine-4-carboxamide]	> 2e-05	6.97e-08
CC(O)C(C)NC(=O)c1cc(-c2ccc(OC(F)F)cc2)nn(-c2cccc(F)c2)c1=O (centres unmarked) [Example 140, 6-[4-(Difluoromethoxy)phenyl]-2-(3-fluorophenyl)-N-(3-hydroxybutan-2-yl)-3-oxo-2,3-dihydropyridazine-4-carboxamide]	> 2e-05	2.05e-07
O=C(NC(CO)C1CCOC1)c1cc(-c2ccc(OC(F)F)cc2)nn(-c2cccc(F)c2)c1=O (centres unmarked) [Example 144, 6-[4-(Difluoromethoxy)phenyl]-2-(3-fluorophenyl)-N-{(2-hydroxy-1-tetrahydrofuran-3-yl)ethyl}-3-oxo-2,3-dihydropyridazine-4-carboxamide]	> 2e-05	8.37e-08
O=C(NC(CO)C1CCOCC1)c1cc(-c2ccc(Cl)cc2)nn(-c2cccc(F)c2)c1=O (centres unmarked) [Example 149]	> 2e-05	1.87e-07
COC(=O)[C@H](CO)NC(=O)c1cc(-c2ccc(Cl)cc2)nn(-c2cccc(F)c2)c1=O [Example 153, Methyl N-{[6-(4-chlorophenyl)-2-(3-fluorophenyl)-3-oxo-2,3-dihydropyridazin-4-yl]carbonyl}-L-serinate]	> 2e-05	1.43e-07
C[C@@H](CO)NC(=O)c1cc(-c2ccc(OC(F)F)cc2)nn(-c2cccc(F)c2)c1=O [Example 155, 6-[4-(Difluoromethoxy)phenyl]-2-(3-fluorophenyl)-N-[(2S)-1-hydroxypropan-2-yl]-3-oxo-2,3-dihydropyridazine-4-carboxamide]	> 2e-05	1.7e-07
O=C(NC[C@H](O)CO)c1cc(-c2ccc(Cl)cc2)nn(-c2cccc(F)c2)c1=O [Example 156, 6-(4-Chlorophenyl)-N-[(2S)-2,3-dihydroxypropyl]-2-(3-fluorophenyl)-3-oxo-2,3-dihydropyridazine-4-carboxamide]	> 2e-05	1.99e-07
O=C(N[C@H](CO)C1CCCC1)c1cc(-c2ccc(Cl)cc2)nn(-c2cccc(F)c2)c1=O [Example 157, 6-(4-Chlorophenyl)-N-[(1S)-1-cyclopentyl-2-hydroxyethyl]-2-(3-fluorophenyl)-3-oxo-2,3-dihydropyridazine-4-carboxamide]	> 2e-05	2.22e-07
O=C(NC[C@@H](O)CO)c1cc(-c2ccc(Cl)cc2)nn(-c2cccc(F)c2)c1=O [Example 159, 6-(4-Chlorophenyl)-N-[(2R)-2,3-dihydroxypropyl]-2-(3-fluorophenyl)-3-oxo-2,3-dihydropyridazine-4-carboxamide]	> 2e-05	2.84e-07
COCC(O)CNC(=O)c1cc(-c2ccc(OC(F)F)cc2)nn(-c2cccc(F)c2)c1=O (centres unmarked) [Example 160, 6-[4-(Difluoromethoxy)phenyl]-2-(3-fluorophenyl)-N-(2-hydroxy-3-methoxypropyl)-3-oxo-2,3-dihydropyridazine-4-carboxamide]	> 2e-05	3.11e-07
